Source: article PMC10185773, “Interactions of the protein tyrosine phosphatase PTPN3 with viral and cellular partners through its PDZ domain: insights into structural determinants and phosphatase activity” (Frontiers in Molecular Biosciences, 2023)
Read-outs that look alike come from different tables or passages of the source.

Legend:
PTPN3-Bidomain = target: T1, PTPN3-Bidomain (Homo sapiens, UniProt P26045); test: pNPP hydrolysis by PTPN3-Bidomain pre-incubated with PBM peptide; assay type: biochemical; conditions: Bidomain 75 nM + large excess of peptide (molar ratio 600:1, 30 min at 25°C), pNPP 19 µM-10 mM, pH 7.5, 25°C, A410, three independent experiments; for Km: substrate-inhibition Michaelis-Menten fit
T1 construct: 6xHis (N); made in house; host or cells: E. coli BL21 Star (DE3)
T1 sequence (P26045 488-913): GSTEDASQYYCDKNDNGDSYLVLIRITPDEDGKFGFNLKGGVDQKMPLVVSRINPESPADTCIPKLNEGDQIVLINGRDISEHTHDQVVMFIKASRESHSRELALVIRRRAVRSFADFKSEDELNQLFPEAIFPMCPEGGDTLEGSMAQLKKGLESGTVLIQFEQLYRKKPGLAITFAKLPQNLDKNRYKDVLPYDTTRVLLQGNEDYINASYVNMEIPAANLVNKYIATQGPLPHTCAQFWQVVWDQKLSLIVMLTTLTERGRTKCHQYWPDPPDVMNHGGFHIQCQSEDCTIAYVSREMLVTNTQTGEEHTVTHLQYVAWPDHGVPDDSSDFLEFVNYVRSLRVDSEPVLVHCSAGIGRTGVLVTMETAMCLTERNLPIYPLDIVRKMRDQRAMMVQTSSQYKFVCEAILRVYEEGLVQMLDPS
Description: We performed enzymatic assays on the constructs PTPN3-Bidomain, PTPN3-linker-PTP, PTPN3-shLinker-PTP (short linker, missing 23 residues) and PTPN3-PDZ (Figure 1). In all experiments, the phosphatase activity was assessed using the synthetic nonspecific phosphatase substrate p-nitrophenyl phosphate (pNPP), whose hydrolysis into p-nitrophenol (pNP) can be followed spectrophotometrically at 410 nm. Reactions were performed in 50 mM Tris-HCl, pH 7.5, 1 mM MgCl2, 150 mM NaCl, 0.5 mM.
TCEP The initial reaction rates were measured independently at pH 7.5 and at 25°C. pNPP was assayed for concentrations ranging from 19 μM to 10 mM at an enzyme concentration of 75 nM. […] The experimental data was therefore fitted to a corrected Michaelis-Menten equation to take into consideration this inhibition.
The equation is: Vo = Vmax [S]/(Km + [S] + [S]2/Ki) with Vo the initial rate, Vmax the maximal rate, [S] the substrate concentration and Ki the inhibition constant.
Phosphatase activity was measured by following the hydrolysis of pNPP as previously described ([Maisonneuve et al., 2014]). Absorbances were measured continuously at 410 nm for pNP, using a Thermo Scientific UV spectrometer equilibrated at 25°C. Initial linear reaction rates were calculated during a 60 s reaction. The kcat and KM constants were deduced from fitting the Michaelis-Menten equation with the Prism software. The data are representative of three independent experiments.
A large excess (molar ratio 600:1) of each peptide was incubated with PTPN3-Bidomain for 30’ at 25°C, and the initial rates of the dephosphorylation reaction were measured in the same range of pNPP concentrations.
To assess whether the PBM binding to the PDZ domain releases the catalytic inhibition as observed for PTPN4 ([Maisonneuve et al., 2014]), we added the PBM peptides of the PTPN3 cellular partners, PBM-TACE and PBM-p38γ, and the viral peptides PBM-16E6, PBM-HBc, in large excess ([…]) to PTPN3-Bidomain (Figure 7A; Table 3). For all peptides, a 2-fold decrease in kcat compared to PTPN3-linker-PTP is measured, as in the unbound Bidomain, while the KM remained unaffected (Table 3). Thus, we concluded that the PBM binding has no effect on PTPN3 catalytic activity in our conditions. Accordingly, the specificity constants (kcat/KM) of the complexed Bidomain are in the same range in comparison with the values of PTPN3-Bidomain (Table 3).

PTPN3-PDZ [1] = target: T2, PTPN3-PDZ (Homo sapiens, UniProt P26045); conditions: holdup, biotinylated 12-mer peptide; threshold 0.2; ref Genera et al., 2021; cited from earlier work
T2 construct: GST (N, cleaved yes); made in house; host or cells: E. coli BL21 Star (DE3)
T2 sequence (P26045 510-582 limits assumed): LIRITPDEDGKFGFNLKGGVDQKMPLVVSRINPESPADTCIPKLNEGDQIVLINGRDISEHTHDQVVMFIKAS
Source text: (§1) We generated a PDZome-binding profile of PBM-p38γ. Mean values of binding intensities (BI) ranked based on affinity are reported in Supplementary Material S1. The highest BI values indicate the PDZ domains recognized with the best affinities by the peptides used as bait. […] In recent work we established the PDZome-binding profile of PBM-HBc with 28 PDZ domains also identified as significant binders ([Genera et al., 2021]). Thus, this similar number of P ...

PTPN4-PDZ [2] = conditions: holdup, biotinylated 12-mer peptide; threshold 0.2; ref Genera et al., 2021; cited from earlier work
Source text: as §1

[3] = test system: library of human PDZ domains (266 PDZ domains, 97% of the human PDZome); conditions: holdup against human PDZome; ref Genera et al., 2021; cited from earlier work
Source text: as §1

[4] = target: biotinylated peptide PBM-p38γ (12-mer, holdup bait); test: holdup assay; biotinylated PBM peptide on resin in 96-well plates; bacterial extracts with overexpressed MBP-PDZ domains incubated, filtered, flowthrough read by microfluidic capillary electrophoresis; binding intensity (BI), threshold 0.2
PTPN3-PDZ [5] = target: T2, PTPN3-PDZ; test: Holdup assay (binding intensity), PTPN3-PDZ; conditions: biotinylated 12-mer peptide on resin, MBP-PDZ bacterial extract, capillary electrophoresis, mean BI, significance threshold 0.2
Description: (§2) The holdup assay was conducted against the biotinylated peptide PBM-p38γ (Supplementary Material S1) following previously established protocols ([Vincentelli et al., 2015]; [Duhoo et al., 2019]) with some slight modifications. In summary, we utilized a high-throughput technique to measure the affinities and specificities of motifs in a library of human PDZ domains, which involved the use of both robotic and microfluidic methodologies. To achieve this, we expressed 266 PDZ domains fused with the Maltose Binding Protein (MBP) tag, which constituted 97% of the human PDZome. Bacterial extracts containing overexpressed PDZ domains were incubated with PBM peptide-coated resins in 96-well plates, then filtered and evaluated using microfluidic capillary electrophoresis to determine binding intensities (BIs) in the flowthroughs. […]
(§3) Then, we investigated the specificity profiles of the PBMs of the PTPN3-PDZ ligands p38γ and of HBc against the full human PDZome (library that contains all the known human PDZ domains) ([Duhoo et al., 2019]). […] 12-mer peptides encompassing the protein C-terminal PBM sequences linked to a biotinyl group are used as baits to quantify the interaction between PBMs and the library of human PDZ domains expressed in Escherichia coli ([Duhoo et al., 2019]). […]

PTPN4-PDZ [6] = test: Holdup assay (binding intensity), PTPN4-PDZ; design: species or system human; conditions: biotinylated 12-mer peptide on resin, MBP-PDZ bacterial extract, capillary electrophoresis, mean BI, significance threshold 0.2
Description: as §2, §3

[7] = test system: library of human PDZ domains (266 PDZ domains, 97% of the human PDZome); test: Holdup assay, PDZome-binding profile; conditions: holdup against human PDZome; about 10% of the PDZome
Description: as §2, §3

[8] = target: HBc PBM (Hepatitis B virus) (UniProt P03149); conditions: cited from earlier work
[9] = target: HPV16 E6 PBM (Human papillomavirus type 16) (UniProt P03126); conditions: cited from earlier work
Sequence of HPV16 E6 PBM (Human papillomavirus type 16) (P03126 whole entry, looked up): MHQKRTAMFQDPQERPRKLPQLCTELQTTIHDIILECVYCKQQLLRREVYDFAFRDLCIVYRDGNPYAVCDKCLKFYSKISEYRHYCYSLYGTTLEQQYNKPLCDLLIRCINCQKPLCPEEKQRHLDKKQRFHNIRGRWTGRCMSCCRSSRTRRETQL

[10] = target: HPV18 E6 PBM (Human papillomavirus type 18) (UniProt P06463); conditions: cited from earlier work
Sequence of HPV18 E6 PBM (Human papillomavirus type 18) (P06463 whole entry, looked up): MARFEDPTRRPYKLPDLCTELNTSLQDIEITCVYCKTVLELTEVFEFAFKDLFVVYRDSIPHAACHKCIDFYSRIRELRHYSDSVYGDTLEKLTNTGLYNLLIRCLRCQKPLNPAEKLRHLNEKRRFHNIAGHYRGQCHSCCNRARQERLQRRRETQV

p38γ PBM (Homo sapiens) = p38γ PBM (Homo sapiens) (UniProt P53778); conditions: cited from earlier work
[11] = target: PTPN3 PDZ domain (PTPN3-PDZ) (human, UniProt P26045-1 510-582, Limits taken from the PDB 6HKS/8OEP/8CQY entity (offset 483, N-terminal GAMGS tag remnant left out); the end at 597 agrees with the printed linker start at 598. 15N-labelled for NMR.); test: NMR titration; 1H,15N HSQC chemical shift perturbations of 15N-labelled PTPN3-PDZ (117 μM); PBM-TACE added stepwise, PDZ:peptide 1:0 to 1:8.5, 11 points; 15°C; 50 mM Tris/HCl pH 7.5, 150 mM NaCl, 0.5 mM TCEP, 5% D2O; 1:1 model, 14 peaks; conditions: both partners purified

Molecule: RRRRSQS R E S Q C [PBM-HBc]
- Km (PTPN3-Bidomain): 1300 ± 100 µM
- k cat of pNPP hydrolysis (PTPN3-Bidomain): 1.6 ± 0.1 s^-1
- binding intensity (BI) (PTPN3-PDZ [1]): 0.45
- binding intensity (BI) (PTPN4-PDZ [2]): 0.58
- number of PDZ domains identified as significant binders [3]: 28 PDZ domains

Molecule: PTPN3-PDZ of the holdup PDZome library (MBP fusion) (from UniProt P26045-1 510-582) (domain or fragment)
- binding intensity (BI) [4]: 0.52

Molecule: WARVS K E T P L [PBM-p38γ]
- binding intensity (BI) (PTPN3-PDZ [5]): 0.52
- binding intensity (BI) (PTPN4-PDZ [6]): 0.60
- number of PDZ domains with significant binding (BI greater than 0.2) [7]: 28 PDZ domains
- Km (PTPN3-Bidomain): 1200 ± 300 µM
- k cat of pNPP hydrolysis (PTPN3-Bidomain): 1.7 ± 0.2 s^-1

Molecule: PTPN3 PDZ (from UniProt P26045)
- Kd [8]: 29 µM
- Kd [9]: 53 µM
- Kd [10]: 37 µM
- Kd (p38γ PBM (Homo sapiens)): 26 µM

Molecule: RSSRTR R E T Q L [PBM-16E6]
- Km (PTPN3-Bidomain): 800 ± 100 µM
- k cat of pNPP hydrolysis (PTPN3-Bidomain): 1.5 ± 0.1 s^-1

B1: PTPN4-PDZ of the holdup PDZome library (MBP fusion) (domain or fragment)
chain: LIRMKPDENGRFGFNVKGGYDQKMPVIVSRVAPGTPADLCVPRLNEGDQVVLINGRDIAEHTHDQVVLFIKAS
- binding intensity (BI) [4]: 0.6

B2: PBM-TACE peptide (last C-terminal 12 residues of TACE) (peptide)
peptide: RQNRVDSKETEC
notes: last C-terminal 12 residues of TACE (tumor necrosis factor alpha-convertase, ADAM17), encompassing the PBM; also called PBM of the tumor necrosis factor-alpha converting enzyme; source: synthetic peptide (solid phase, Fmoc; Proteogenix)
- Kd [11]: 30 µM
